Data as given in paper PMC2014744, “A novel p38α MAPK inhibitor suppresses brain proinflammatory cytokine up-regulation and attenuates synaptic dysfunction and behavioral deficits in an Alzheimer's disease mouse model” (Journal of Neuroinflammation, 2007).
Values after ≈ are worked out from the molar mass of the structure shown. “Also recorded” adds a separate entry of the source.

What was measured:
p38β = target: T1, p38β (Homo sapiens, UniProt Q15759); experiment: Millipore/Upstate kinase profiling: p38β; type: biochemical; conditions: 20 μM compound
T1 construct: purchased Millipore (KinaseProfiler kinase screening service)
Protocol: (§3) Enzyme activity assays were done in a final volume of 50 μl and each point was tested in duplicate. […] When compounds were tested for kinase inhibitory activity, 10X stock solutions of compounds were prepared in DMSO or water, and control samples contained the same final concentration of solvent as the samples containing compound. Data are expressed as percent of the maximal enzyme activity, where enzyme activity in the absence of compound is taken as 100%. IC50 values were calculated by a nonlinear regression data analysis using Microsoft Excel. Selectivity against pathway or structurally related protein kinases was done using purified kinases and standard in vitro assays described previously [69, 70], and included use of the Millipore (Billerica, MA) kinase screening service at 20 μM final concentration of 069A and 90 μM final concentration of ATP.

MKK4 = target: T2, MKK4 (Mus musculus, UniProt P47809); experiment: Millipore/Upstate kinase profiling: MKK4; type: biochemical; conditions: 20 μM compound; 90 μM ATP; activity without inhibitor = 100%
T2 construct: purchased Millipore (KinaseProfiler kinase screening service)
T2 sequence (P47809 1-397): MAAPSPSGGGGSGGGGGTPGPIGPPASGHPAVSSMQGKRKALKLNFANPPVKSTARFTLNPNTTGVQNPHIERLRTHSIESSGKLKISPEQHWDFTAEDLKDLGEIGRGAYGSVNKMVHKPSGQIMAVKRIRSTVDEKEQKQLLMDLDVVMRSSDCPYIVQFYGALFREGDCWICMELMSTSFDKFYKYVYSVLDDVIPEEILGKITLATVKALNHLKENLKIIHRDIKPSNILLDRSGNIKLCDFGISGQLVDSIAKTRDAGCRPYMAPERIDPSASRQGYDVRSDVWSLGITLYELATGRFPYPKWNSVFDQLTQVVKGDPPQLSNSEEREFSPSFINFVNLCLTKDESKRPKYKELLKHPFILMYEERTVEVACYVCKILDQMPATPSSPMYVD

MKK7β = target: T3, MKK7β (Homo sapiens, UniProt O14733); experiment: Millipore/Upstate kinase profiling: MKK7β; type: biochemical; conditions: 20 μM compound; 90 μM ATP; activity without inhibitor = 100%
T3 construct: purchased Millipore (KinaseProfiler kinase screening service)
T3 sequence (O14733 1-419): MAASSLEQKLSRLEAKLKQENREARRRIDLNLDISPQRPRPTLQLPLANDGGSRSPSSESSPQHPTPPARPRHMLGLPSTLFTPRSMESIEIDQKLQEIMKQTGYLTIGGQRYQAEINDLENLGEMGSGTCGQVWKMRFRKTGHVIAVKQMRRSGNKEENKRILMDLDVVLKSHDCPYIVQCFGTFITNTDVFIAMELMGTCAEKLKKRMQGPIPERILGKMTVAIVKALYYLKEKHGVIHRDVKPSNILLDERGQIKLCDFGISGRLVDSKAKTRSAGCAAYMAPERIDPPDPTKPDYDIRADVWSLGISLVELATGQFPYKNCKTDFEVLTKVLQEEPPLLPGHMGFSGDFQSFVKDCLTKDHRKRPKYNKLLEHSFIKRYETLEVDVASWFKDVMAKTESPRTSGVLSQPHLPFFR

[1] = system: 44 other purified protein kinases; experiment: Millipore kinase screen, summary for the non-p38 kinases; type: biochemical; conditions: 20 μM compound, Table 1
Protocol: as §3

[2] = Aqueous solubility determination (log S); type: physicochemical; conditions: thermodynamic from solid, Milli-Q water, 22°C
Protocol: For aqueous solubility (log S) determination, compound 069A was weighed on a Sartorius AG (Goettingen, Germany) analytical balance, and Milli-Q water was added to create an oversaturated solution (suspension). Sample tubes were stirred for 24 hrs at ambient temperature (t = 22°C). 1 mL of the samples were centrifuged in a microfuge at 16,000 × g for 10 min, and 20 μL was subjected to reverse-phase HPLC analysis to determine the concentration of the compound (caq). The concentration of compound in the aqueous phase (caq) was determined by peak detection at 254 nm at the appropriate retention time relative to a standard curve obtained from serial dilutions of the compound. The log S was calculated as common logarithm (log10) of caq.

[3] = Lipophilicity determination (log P), shake-flask; type: physicochemical; conditions: 1-octanol/water shake-flask, 25°C
Protocol: The partition coefficient was determined by the shake-flask method. The starting solution (0.3 mg/mL) of analyzed compound was prepared in presaturated 1-octanol (Sigma-Aldrich, St. Louis, MO). 1 mL of the octanol phase was agitated on a plate shaker with 10 mL of presaturated Milli-Q water for 2 hrs at 25°C. After partitioning, 1 mL of the aqueous phase was centrifuged in a microfuge for 10 min at 16,000 × g. 20 μL of the sample were analyzed with reversed-phase HPLC as described above to determine the concentration of the aqueous phase (caq). The log P is calculated according to the formula: log P = log10 [(0.3 – caq)/caq].

[4] = Oral bioavailability: compound in plasma after oral gavage; type: in vivo, C57Bl/6 mice; conditions: mice, 2.5 mg/kg oral gavage; earliest time point analyzed
Protocol: (§1) Analysis of oral bioavailability (concentration of compound in the blood as a function of time after oral administration) and brain uptake was done by a modification of that previously described. Briefly, 069A (2.5 mg/kg) was administered to C57Bl/6 mice by oral gavage in a 0.5% (w/v) carboxymethylcellulose suspension. At 5, 15, 30, 60, and 120 min after compound administration, blood was collected in heparinized tubes from anesthetized animals and plasma obtained by centrifugation. After perfusion, brains were harvested, homogenized in 0.1% formic acid and deproteinized with ice-cold acetonitrile. After centrifugation to remove precipitated protein, the brain homogenate supernatants were further diluted with 0.1% formic acid. The plasma samples were acidified by diluting with 0.1% formic acid (1:3, v:v). Solid phase extraction followed by HPLC analysis was used to quantify the amount of compound in the plasma and brain supernatants, with compound MW01-6-189WH used as an internal standard. Briefly, 30 mg cartridges (Oasis® HLB, Waters) were conditioned with 1 mL of acetonitrile and equilibrated with 1 mL of water. Acidified samples were loaded onto the cartridge followed by a 1 mL wash with 5% acetonitrile. Compound was eluted from the cartridge using 100% acetonitrile. The eluate was evaporated to dryness, reconstituted in 60% acetonitrile/0.1% formic acid/water and analyzed by HPLC. […]

[5] = Brain uptake: compound in brain homogenate after oral gavage; type: in vivo, C57Bl/6 mice; conditions: mice, 2.5 mg/kg oral gavage; brain homogenate after perfusion
Protocol: as §1

C57Bl/6 mice = experiment: Liver toxicity screen (histology after two weeks of daily oral dosing); type: in vivo; conditions: 2.5 mg/kg oral gavage once daily for 2 weeks
Protocol: Screening for histological liver injury after chronic, therapeutic dose administration of compound was done as previously described. Briefly, C57Bl/6 mice were administered by oral gavage either […] (2.5 mg/kg) or solvent control (DMSO) in a 0.5% (w/v) carboxymethylcellulose suspension. Compound or vehicle administration was once daily for two weeks. Livers were then removed, fixed in 4% (v/v) paraformaldehyde, and paraffin-embedded for histology. To assess histological toxicity, 4 μm liver sections were stained with haematoxylin and eosin. Two independent observers blinded to the treatment groups performed microscopic assessment of the tissue for injury by using a semi-quantitative histological scoring system that considers architecture features (normal to extensive fibrosis), cellular features (normal to extensive edema and widespread necrosis), and degree of inflammatory infiltrate (normal to extensive infiltrate).

[6] = Stability in human liver microsomes; type: in vitro ADME; conditions: 5 μM compound; for metabolic stability in human liver microsomes compared with 069A (in words): Fig. 4D, 10 or 30 min incubation
Protocol: Briefly, triplicate reaction mixtures contained 0.1 M potassium phosphate buffer (pH 7.4) and a final concentration of the following components: 1 – 1.6 mg/ml total microsomal protein, 5 μM test compound, 1.3 mM NADPH, 3.3 mM MgCl2, 0.4 U/ml glucose-6-phosphate dehydrogenase, and 3.3 mM glucose-6-phosphate in a total volume of 300 μl. Mixtures were incubated at 37°C for 10 or 30 minutes. […] HPLC was performed as described above with 0.1% (v/v) formic acid in water as reagent A and acetonitrile with 0.1% (v/v) formic acid in water as reagent B. Peak quantification was done based upon absorption measurements at 260 nm relative to a standard curve obtained by serial dilutions of compounds.

[7] = system: C57Bl/6 mice infused ICV with human oligomeric Aβ1–42; experiment: AD mouse model (ICV infusion of human oligomeric Aβ1–42): hippocampal protein levels by ELISA; type: in vivo; conditions: 2.5 mg/kg oral once daily for 2 weeks from day 21 after start of Aβ infusion; day 60
Protocol: (§2) The four-week intracerebroventricular (ICV) infusion of human oligomeric Aβ1-42 or Hepes/HDL vehicle into C57Bl/6 mice was done as previously described. Mice were administered by oral gavage either […] (2.5 mg/kg) or solvent control (DMSO) in a 0.5% (w/v) carboxymethylcellulose suspension. Compound administration began at day 21 after the start of Aβ infusion, and continued on a once daily administration schedule for 14 days. Beginning at day 50 after the start of Aβ infusion, the Y-maze test of spontaneous alternation was done once daily for 10 days to evaluate hippocampal-dependent spatial learning as described previously. At day 60, mice were anesthetized, perfused, and sacrificed as previously described. Hippocampal extract supernatants were prepared by dounce and sonication, followed by centrifugation as described previously. Levels of the proinflammatory cytokines IL-1β and TNFα in hippocampal supernatants were measured by ELISA (Biosource International) per the manufacturer's instructions. S100B and synaptophysin levels were measured by ELISA as previously described.

[8] = system: C57Bl/6 mice infused ICV with human oligomeric Aβ1–42; experiment: AD mouse model (ICV infusion of human oligomeric Aβ1–42): Y-maze spontaneous alternation; type: in vivo; conditions: 2.5 mg/kg oral once daily for 2 weeks from day 21; Y-maze days 50-60
Protocol: as §2

p38α/SAPK2α = target: T4, p38α/SAPK2α (Homo sapiens, UniProt Q16539); experiment: In vitro p38α MAPK protein kinase assay (myelin basic protein phosphorylation, 32P-ATP); type: biochemical; conditions: Fig. 3B; for p38α MAPK inhibitory activity (in words): increasing concentrations of compound; for fold less active than 069A as p38α MAPK inhibitor: relative to 069A
T4 construct: purchased Millipore (Billerica, MA)
Protocol: Concentration-dependent inhibition of protein kinase activity was done essentially as previously described. Active p38α/SAPK2α enzyme was obtained from Millipore (Billerica, MA), and bovine myelin basic protein substrate was obtained from Sigma-Aldrich (St. Louis, MO). Enzyme activity assays were done in a final volume of 50 μl and each point was tested in duplicate. Assays were done by incubation with 0.33 mg/ml (18 μM) myelin basic protein, 100 μM ATP and γ-[^32P]ATP (specific activity > 300 cpm/pmol) in assay buffer (50 mM HEPES, pH 7.5, 5 mM MgCl2, 150 mM KCl, 15 mM NaCl, 1 mM DTT). Reactions were initiated by addition of the active p38α kinase at a final concentration of 2 μg/ml, and incubated for 10 min at 30°C. […] When compounds were tested for kinase inhibitory activity, 10X stock solutions of compounds were prepared in DMSO or water, and control samples contained the same final concentration of solvent as the samples containing compound. Data are expressed as percent of the maximal enzyme activity, where enzyme activity in the absence of compound is taken as 100%. IC50 values were calculated by a nonlinear regression data analysis using Microsoft Excel. Selectivity against pathway or structurally related protein kinases was done using purified kinases and standard in vitro assays described previously, and included use of the Millipore (Billerica, MA) kinase screening service at 20 μM final concentration of 069A and 90 μM final concentration of ATP.

[9] = cited from earlier work
p38α MAPK = conditions: background statement, no reference given; cited from earlier work

T4 sequence (Q16539 whole entry): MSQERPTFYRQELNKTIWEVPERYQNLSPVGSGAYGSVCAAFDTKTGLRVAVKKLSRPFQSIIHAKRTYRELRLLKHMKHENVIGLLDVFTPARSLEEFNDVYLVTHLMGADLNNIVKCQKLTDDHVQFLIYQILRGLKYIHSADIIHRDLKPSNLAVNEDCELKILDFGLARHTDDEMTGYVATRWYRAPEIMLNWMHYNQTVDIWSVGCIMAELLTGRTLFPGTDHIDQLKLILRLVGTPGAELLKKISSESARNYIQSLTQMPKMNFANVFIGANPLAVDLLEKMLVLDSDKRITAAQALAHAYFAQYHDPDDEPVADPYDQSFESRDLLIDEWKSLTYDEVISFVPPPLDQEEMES
T1 sequence (Q15759 whole entry): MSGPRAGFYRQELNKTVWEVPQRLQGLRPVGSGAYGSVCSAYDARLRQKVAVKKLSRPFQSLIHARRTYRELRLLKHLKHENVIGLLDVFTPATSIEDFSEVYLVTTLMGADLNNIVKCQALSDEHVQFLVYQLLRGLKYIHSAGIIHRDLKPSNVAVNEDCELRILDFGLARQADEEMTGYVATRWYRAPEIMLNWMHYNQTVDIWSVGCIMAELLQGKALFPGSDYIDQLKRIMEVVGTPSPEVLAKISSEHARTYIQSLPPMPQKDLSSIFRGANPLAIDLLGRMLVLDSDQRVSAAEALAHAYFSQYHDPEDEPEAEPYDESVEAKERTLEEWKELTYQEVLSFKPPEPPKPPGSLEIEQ

c1ccc(-c2nnc(N3CCN(c4ncccn4)CC3)cc2-c2ccncc2)cc1 [MW01-2-069A-SRM]
% kinase activity (p38β) (p38β; 90 μM ATP, activity without inhibitor = 100%): 30% | inhibition of p38β (in words) (p38β; Millipore screen): partial inhibition | % kinase activity (MKK4) (MKK4): 117% | % kinase activity (MKK7β) (MKK7β): 103% | inhibition of 44 other purified protein kinases (in words) [1]: little or no inhibition | solubility at 24 h [2]: 9.54 µg/mL (≈ 24.1 µM) | logP at 2 h [3]: 3.18 | time at which compound is detected in plasma after oral administration [4]: ≤ 5 min | time at which compound appears in brain after oral administration [5]: ≤ 5 min | time of peak brain concentration after oral administration [5]: 5 to 15 min | adverse clinical effects during treatment (C57Bl/6 mice): no adverse clinical effects | histological liver injury (C57Bl/6 mice; compared with vehicle, 2.5 mg/kg): did not induce any histological indices of liver tissue injury; also recorded: no significant liver toxicity | compound remaining after incubation with human liver microsomes ([6]; 10 min incubation, 37°C): ~ 70% | Aβ-induced loss of synaptophysin in hippocampal extracts [7]: attenuates this loss of synaptophysin | Aβ-induced overproduction of IL-1β in hippocampal extracts [7]: significantly reduced | Aβ-induced overproduction of S100B in hippocampal extracts [7]: significantly reduced | Aβ-induced overproduction of TNFα in hippocampal extracts [7]: significantly reduced | Aβ-induced Y-maze behavioral deficit [8]: ameliorates the Y-maze behavioral deficit

c1ccc(-c2ccc(N3CCN(c4ncccn4)CC3)nn2)cc1 [MW01-3-183WH, 3-phenyl-6-(4-(pyrimidin-2-yl)piperazin-1-yl)pyridazine]
p38α MAPK inhibitory activity (in words) (p38α/SAPK2α): lacks inhibitory activity | fold less active than 069A as p38α MAPK inhibitor (p38α/SAPK2α): > 100 fold

c1ccc(-c2nnc(N3CCN(c4ncccn4)CC3)cc2-c2cccnc2)cc1 [MW01-4-119SRM, 3-phenyl-4-(pyridin-3-yl)-6-(4-(pyrimidin-2-yl)piperazin-1-yl)pyridazine]
p38α MAPK inhibitory activity (in words) (p38α/SAPK2α): major loss of activity | fold less active than 069A as p38α MAPK inhibitor (p38α/SAPK2α): > 100 fold

c1ccc(-c2cc(-c3ccncc3)c(N3CCN(c4ncccn4)CC3)nn2)cc1 [MW01-6-189WH]
p38α MAPK inhibitory activity (in words) (p38α/SAPK2α): does not generate MAPK inhibitory activity | fold less active than 069A as p38α MAPK inhibitor (p38α/SAPK2α): > 100 fold

Cc1cc(-c2ccccc2)nnc1NCCN1CCOCC1 [Minaprine]
metabolic stability in human liver microsomes compared with 069A (in words) [6]: it is more stable than the structurally related, clinical CNS drug Minaprine

Cc1cc(-c2ccccc2)nnc1N1CCN(c2ncccn2)CC1 [Minozac]
metabolic stability in human liver microsomes compared with 069A (in words) [6]: 069A is not as metabolically stable as Minozac | blood-brain barrier penetrance [9]: good blood-brain barrier penetrance | p38α MAPK inhibition (in words) (p38α MAPK): not an inhibitor
